Values after ≈ are worked out from the molar mass of the structure shown. Square brackets hold non-standard residues; d marks the D form. Peptide text beside a SMILES is read from it. * marks the point of attachment. Myristoyl = CCCCCCCCCCCCCC(=O)*; Orn = NCCC[C@H](N)C(=O)O
Columns and labels:
C. neoformans H99 [1] = settings: Cn wild-type, previous study; cited from earlier work
C. neoformans cdc50Δ = settings: Cdc50 deleted, previous study; cited from earlier work
Protocol: Our previous studies have identified that the Cn cdc50Δ mutant was highly susceptible to CAS compared to the wild-type.[23] The minimum inhibitory concentration (MIC) of CAS was reduced 4-fold from 16 to 4 μg/mL when Cdc50 was deleted. The surprising observation that loss of Cdc50 sensitized Cryptococcus to CAS led to an obvious question: why did a mutation to a seemingly disparate cellular system-membrane homeostasis proteins have such a dramatic effect on the susceptibility to cell wall biosynthesis inhibitors? It was subsequently discovered that Cdc50 in C. neoformans is unique because it h ...

[2] = tested on: C. neoformans in macrophage J774 cells; assay: Macrophage killing assay; assay type: cell-based, Cryptococcus neoformans / murine macrophage; settings: yeast pretreated at sub-MIC for 30 min; 2 or 4 h coincubation
Protocol: Macrophage killing assay was carried out in accordance with previously reported protocols.[23],[69] After the cell line was activated from −80 °C stock and passaged several times, the cells were washed and resuspended in fresh DMEM + FBS at 1 × 10^5 cell/mL. Each well in a 3 column by 6 row grid in a 48-well plate was charged with 0.5 mL of cell suspension, approximately 50,000 cell/well. Macrophages were grown ON at 37 °C in a tissue culture incubator and were further activated with LPS. Yeast cells were grown ON using standard conditions. Fungal cells were washed twice with H2O, resuspended in PBS, and adjusted to 2.4 × 10^6 cfu/mL in 5 mL RPMI. […] Treated cells were transferred to a 1.5 mL Eppendorf tube, pelleted, and resuspended in 100 μL of 20% mouse compliment in PBS for opsonization. Prior to inoculating the wells with yeast cells for coincubation, the opsonized cells were diluted by an additional 20% with PBS. Each well was inoculated with 10 μL of cell suspension. Cocultures were prepared using three technical replicates. The 48-well plates were inoculated about 30 min apart to allow time to process each plate during the experiment. After 2 h of coincubation, each well was washed three times with 200 μL of warm DMEM + penstrep. […]

C. neoformans H99 [3] = assay type: cell-based, Cryptococcus neoformans; settings: 2× MIC, by 2 h, no rebound by 8 h; RPMI1640, 30 °C, 225 rpm, 2 million cfu/mL
Protocol: Culture tubes were prepared with aliquots of 2.0 mL of RPMI1640 (containing Q, MOPS, pH = 7, no phenol red). The tubes were sealed to prevent evaporation and were equilibrated with the incubation chamber overnight, at 30 °C. On the day of the experiment, overnight yeast cultures in YPD were washed twice with DD-H2O and resuspended in DD-H2O. The OD600 of the cell suspension was adjusted to 4.6, ≈2 × 10^6 cfu/mL, in DD-H2O. A 200 μL aliquot of adjusted cell suspension was added systematically to each tube, followed by 200 μL sampling for the 0 h time point. Immediately after sampling, the antifungal compounds were added, and the tubes were placed in the incubator at 30 °C with shaking at 225 rpm. The sampled aliquot was transferred to a 96-well plate and serially diluted six times, 10-fold each time. The resulting cell suspensions were spotted onto YPD plates in a grid pattern of 5 μL per spot. Subsequently, tubes were briefly removed from the incubator, and 100 μL aliquots were sampled at 2, 4, 6, and 8 h time points. Cells were counted on the YPD plates at either 24 or 48 h after plate spotting, depending on when the colonies were countable. Images of the YPD plates were recorded on the Bio-Rad Gel imager after 48 h of incubation at 30 °C. […] 2 C = number of colonies counted, Df = dilution factor = 10^n–1, n = column that the cells were counted, and Vf = volume factor = 1/0.005 mL.

[4] = tested on: C. neoformans H99 and cdc50Δ; assay: Intracellular calcium measurement (Fluo-3AM, flow cytometry); assay type: cell-based, Cryptococcus neoformans; settings: YPD, remained elevated for the 60 min time course
Protocol: Intracellular calcium measurement was carried out in accordance with previously reported methodologies.[35] Yeast cells were sub cultured ON in YPD, and the next day cells were washed twice in D-Hanks (0.4 g/Liter KCl, 0.06 g/Liter KH2PO4, 8.0 g/Liter NaCl, 0.35 g/Liter NaHCO3, 0.06 g/Liter Na2HPO4·7H2O) and adjusted to 1 × 10^7 cfu/mL in 5 mL D-Hanks. Fluo-3-AM stock solution in DMSO was diluted 1000-fold to operating stain concentration of 10 μM. Cells were stained in the dark for 30 min at 37 °C, 225 rpm, in a 12 mL culture tube. Stained cells were washed three times in D-Hanks and resuspended into a minimal amount of YPD or calcium-enriched YPD required to inoculate each condition. Each condition was prepared with three technical replicates. After inoculating 1 mL YPD with 0.2 mL cell suspension, 0.2 mL was aliquoted into a flow tube for the 0 min time point. The flow tube was placed on ice until flow analysis. […] To allow for sample processing for each time point, each set of replicates was inoculated and treated about 2 min apart. Subsequent 0.2 mL aliquots were drawn at 12, 24, 36, and 60 min for flow analysis. Live cells were analyzed using BD FACS via 100,000 events were collected, and singlets were gated for each sample. The mean fluorescence of the singlets was recorded and plotted as a function of […].

| SMILES | MIC (C. neoformans H99 [1]) [µg/mL] | MIC (C. neoformans cdc50Δ) [µg/mL] | fungal proliferation inside macrophages vs untreated control [2] | Cryptococcus cells killed (C. neoformans H99 [3]) [%] | time to difference in intracellular calcium signaling vs untreated cells [4] [min] |
| --- | --- | --- | --- | --- | --- |
| CC[C@H](C)C[C@H](C)CCCCCCCCC(=O)N[C@H]1C[C@@H](O)[C@@H](NCCN)NC(=O)[C@@H]2[C@@H](O)CCN2C(=O)[C@H]([C@H](O)CCN)NC(=O)[C@H]([C@H](O)[C@@H](O)c2ccc(O)cc2)NC(=O)[C@@H]2C[C@@H](O)CN2C(=O)[C@H]([C@@H](C)O)NC1=O [CAS, caspofungin] | 16 (≈ 14.6 µM) | 4 (≈ 3.66 µM) |  |  |  |
| CCCCCCCCCCCCCC(=O)N[C@@H](Cc1c[nH]c2ccccc12)C(=O)NCC(=O)NCC(=O)N[C@H](C(=O)N[C@@H](CCCN)C(=O)N[C@@H](CCCN)C(=O)N[C@@H](CC(N)=O)C(=O)N[C@@H](Cc1ccc(O)cc1)C(=O)N[C@@H](C)C(N)=O)[C@@H](C)CC [KKOO-NH2] (Myristoyl-WGGI[Orn][Orn]NYA-NH2) |  |  | No statistically significant difference | > 99.9 | ≤ 12 |

— paper PMC11555678, “Improved Broad Spectrum Antifungal Drug Synergies with Cryptomycin, a Cdc50-Inspired Antifungal Peptide” (ACS Infectious Diseases, 2024)
